The values that follow come from patent US10683297B2 (Sunshine Lake Pharma Co., Ltd., priority 2017, dated 2020).

Molecules are shown by their SMILES.

Data set [1] in a line: Compound stability in human liver microsomes. The data set is classed as in vitro ADME. The conditions noted are these: for half-life at 5 μM: human liver microsomes 0.5 mg protein/mL, compound 5 μM, NADPH 1.0 mM, pH 7.4, 37° C., read-out: Human T1/2; for CLint scaled at 5 μM: liver microsomes, pH 7.4, in vivo CLint extrapolated from human liver microsome incubation. The method, then: (§1) The LC/MS/MS system used in the analysis consists of an Agilent 1200 Series vacuum degasser, binary pump, well-plate autosampler, thermostatted column compartment, the Agilent G6430 Triple Quadrupole Mass Spectrometer with an electrosprayionization (ESI) source. Quantitative analysis was carried out using MRM mode. The parameters for MRM transitions are in the Table A.
(§2) An Agilent XDB-C18, 2.1×30 mm, 3.5 μM column was used for the analysis. 5 μL of the samples were injected. Analysis condition: The mobile phase was 0.1% formic acid in water (A) and 0.1% formic acid in methanol (B). The flow rate was 0.4 mL/min. And the gradient of Mobile phase was in the Table B.
(§3) Alternatively, an Agilent 6330 series LC/MS/MS spectrometer equipped with G1312A binary pumps, a G1367A autosampler and a G1314C UV detector were used in the analysis. An ESI source was used on the LC/MS/MS spectrometer. The analysis was done in positive ion mode as appropriate and the MRM transition for each analyte was optimized using standard solution. A Capcell MP-C18 100×4.6 mm I.D., 5 uM column (Phenomenex, Torrance, Calif., USA) was used during the analysis. The mobile phase was 5 mM ammonia acetate, 0.1% MeOH in water (A): 5 mM ammonia acetate, 0.1% MeOH in acetonitrile (B) (70/30, v/v). The flow rate was 0.6 mL/min. Column was maintained at ambient temperature. 20 μL of the samples were injected.
(§4) Human or rat liver microsomes incubations were conducted in duplicate in polypropylene tubes. The typical incubation mixtures consisted of human or rat liver microsomes (0.5 mg protein/mL), compounds of interest (5 μM) and NADPH (1.0 mM) in a total volume of 200 μL potassium phosphate buffer (PBS, 100 mM, pH 7.4). Compounds were dissolved in DMSO and diluted with PBS such that the final concentration of DMSO was 0.05%. The enzymatic reactions were commenced with the addition of […] after a 3-min preincubation and incubated in a water bath open to the air at 37° C. Reactions were terminated at various time points (0, 5, 10, 15, 30, 60 min) by adding equal volume of ice-cold acetonitrile. The samples were stored at […] until LC/MS/MS assays.
(§5) The concentrations of compounds in the incubation mixtures of human or rat liver microsomes were determined by a LC/MS/MS method. The ranges of the linearity in the concentration range were determined for each tested compounds.
(§6) A parallel incubation was performed using denatured microsomes as the negative control, and reactions were terminated at various time points (0, 15, 60 min) after incubation at 37° C.
(§7) Dextromethorphan (70 μM) was selected as the positive control, and reactions were terminated at various time points (0, 5, 10, 15, 30, 60 min) after incubation at 37° C. Both positive and negative control samples were included in each assay to ensure the integrity of the microsomal incubation system.
(§8) The concentrations of compounds in human or rat liver microsome incubations were plotted as a percentage of the relevant zero time point control for each reaction. The in vivo CLint were extrapolated (ref.: Naritomi, Y.; Terashita, S.; Kimura, S.; Suzuki, A.; Kagayama, A.; and Sugiyama, Y.; Prediction of human hepatic clearance from in vivo animal experiments and in vitro metabolic studies with liver microsomes from animals and humans. Drug Metab. Dispos., 2001, 29: 1316-1324).

A short description of data set [2]: Compound stability in rat liver microsomes. In kind it is in vitro ADME. The conditions noted are these: for CLint scaled at 5 μM: liver microsomes, pH 7.4, in vivo CLint extrapolated from rat liver microsome incubation; for half-life at 5 μM: rat liver microsomes 0.5 mg protein/mL, compound 5 μM, NADPH 1.0 mM, pH 7.4, 37° C., read-out: Rat T1/2. The method, then: as §1, §2, §3, §4, §5, §6, §7, §8

Data set [3] can be described thus: Pharmacokinetics after intravenous and oral administration in rats. The data set is classed as in vivo. The conditions noted are these: for Clearance (CL) after iv dosing / AUC(0-t) / half-life / Vd: dose 1 mg/kg (Ex. 9: 0.6, Ex. 18: 0.5, Ex. 50: 0.96 mg/kg), iv dosing; for AUC(0-t) / half-life / Vd / bioavailability: rat, plasma; for Vd: read-out: Vss; for bioavailability: oral (generally 5 or 10 mg/kg) versus iv dosing, read-out: F (oral bioavailability). The procedure:
as §1, §2, §3
The compounds disclosed herein are assessed in pharmacokinetic studies in mice, rats, dogs or monkeys. The compounds are administered as a water solution, 2% HPMC+1% TWEEN®80 in water solution, 5% DMSO+5% solutol in saline, 4% MC suspension or capsule. For the intravenous administration, the animals are generally given at about 0.5, 0.6, 1 or 2 mg/kg dose. For the oral (p.o.) dosing, mice and rats are generally given 5 or 10 mg/kg dose, and dogs and monkeys are generally given 10 mg/kg dose. The blood samples (0.3 mL) are drawn at 0.25, 0.5, 1.0, 2.0, 3.0, 4.0, 6.0, 8.0, 12 and 24 h time points or 0.083, 0.25, 0.5, 1.0, 2.0, 4.0, 6.0, 8.0 and 24 h time points and centrifuged at 3,000 or 4000 rpm for 2 to 10 min. The plasma solutions are collected, and stored at […] until analyzed by LC/MS/MS as described above.

As a reminder, the CLint scaled is a measure of how fast metabolising enzymes remove a compound, apart from limits set by blood flow. For orientation: AUC(0-t) means the area under the concentration-time curve up to a stated or last time point. Higher therefore signals more exposure. In general, bioavailability refers to dose-corrected exposure relative to a reference, in per cent. For `CCC1CN(c2ccc(C#N)cn2)CCC1Nc1nc(Nc2ccn3c(C)nnc3c2)ncc1Cl` (stereo not drawn) [Example 17, 6-(4-((5-chloro-2-((3-methyl-[1,2,4]triazolo[4,3-a]pyridin-7-yl)amino)pyrimidin-4-yl)amino)-3-ethylpiperidin-1-yl)nicotinonitrile], in data set [1], the half-life at 5 μM is 44 min and the CLint scaled at 5 μM was 39.5 mL/min/kg. In data set [2], the intrinsic clearance (CLint scaled) at 5 μM is 302 mL/min/kg and the half-life at 5 μM was 8.22 min. In data set [3], the “Clearance (CL) after iv dosing” value worked out at 17.8 mL/min/kg, the AUC(0-t) was 949 ng·h/mL, the half-life was 36 min and the Vd is 0.67 L/kg. Besides, the bioavailability in data set [3] is 48.2%.
As for `Cc1c(Nc2ncc(Cl)c(NC3CCN(c4ccc(C#N)nn4)CC3)n2)ccn2c(C)cnc12` [Example 29, 6-(4-((5-chloro-2-((3,8-dimethylimidazo[1,2-a]pyridin-7-yl)amino)pyrimidin-4-yl)amino)piperidin-1-yl)pyridazine-3-carbonitrile], in data set [1], the half-life at 5 μM was 43.9 min and the CLint scaled at 5 μM is 39.6 mL/min/kg. Further, in data set [2], the CLint scaled at 5 μM is 76.8 mL/min/kg and the half-life at 5 μM was found to be 32.4 min. Moreover, in data set [3], the “Clearance (CL) after iv dosing” value was 22.3 mL/min/kg, the AUC(0-t) was 751 ng·h/mL, the half-life was 39.6 min and the Vd came to 1.16 L/kg. Besides, the bioavailability in data set [3] was found to be 38.5%.
Regarding `Cc1nc2ccc(Nc3ncc(Cl)c(NC4CCN(c5ccc(C#N)nn5)CC4)n3)cn2n1` [Example 34, 6-(4-((5-chloro-2-((2-methyl-[1,2,4]triazolo[1,5-a]pyridin-6-yl)amino)pyrimidin-4-yl)amino)piperidin-1-yl)pyridazine-3-carbonitrile], in data set [1], the half-life at 5 μM is 125 min and the intrinsic clearance (CLint scaled) at 5 μM was 13.9 mL/min/kg. Besides, in data set [2], the CLint scaled at 5 μM was 87.5 mL/min/kg and the half-life at 5 μM was found to be 28.4 min. Also, in data set [3], the “Clearance (CL) after iv dosing” value turned out to be 10.5 mL/min/kg, the AUC(0-t) worked out at 1560 ng·h/mL, the half-life is 72 min and the Vd stood at 1.53 L/kg. Besides, the bioavailability in data set [3] was 46.9%.
In the case of `Cc1nc2cc(Nc3ncc(Cl)c(NC4CCN(c5ccc(C#N)nn5)CC4)n3)ccn2n1` [Example 35, 6-(4-((5-chloro-2-((2-methyl-[1,2,4]triazolo[1,5-a]pyridin-7-yl)amino)pyrimidin-4-yl)amino)piperidin-1-yl)pyridazine-3-carbonitrile], in data set [1], the half-life at 5 μM came to 183 min and the intrinsic clearance (CLint scaled) at 5 μM is 9.5 mL/min/kg. For the same compound, in data set [2], the CLint scaled at 5 μM was 17.2 mL/min/kg and the half-life at 5 μM was determined as 144 min. Also, in data set [3], the “Clearance (CL) after iv dosing” value is 5.33 mL/min/kg, the AUC(0-t) was 3110 ng·h/mL, the half-life was 156 min and the Vd came out at 0.53 L/kg. The bioavailability in data set [3] was 57.6%.
With `Cc1nc2cc(Nc3ncc(Cl)c(NC4CCN(c5ccc(C#N)nn5)CC4)n3)ccc2n1C` [Example 49, 6-(4-((5-chloro-2-((1,2-dimethyl-1H-benzo[d]imidazol-5-yl)amino)pyrimidin-4-yl)amino)piperidin-1-yl)pyridazine-3-carbonitrile], in data set [1], the half-life at 5 μM worked out at 52.7 min and the CLint scaled at 5 μM is 33 mL/min/kg. In data set [2], the CLint scaled at 5 μM was 76.5 mL/min/kg and the half-life at 5 μM was found to be 32.5 min. In addition, in data set [3], the “Clearance (CL) after iv dosing” value came to 10.8 mL/min/kg, the AUC(0-t) stood at 1540 ng·h/mL, the half-life was 36 min and the Vd is 0.56 L/kg. Also, the bioavailability in data set [3] amounted to 79.6%.
Take `CC(O)Cn1cnc2cc(Nc3ncc(Cl)c(NC4CCN(c5ccc(C#N)cn5)CC4)n3)cnc21` (stereo not drawn) [Example 52, 6-(4-((5-chloro-2-((3-(2-hydroxypropyl)-3H-imidazo[4,5-b]pyridin-6-yl)amino)pyrimidin-4-yl)amino)piperidin-1-yl)nicotinonitrile]: in data set [1], the half-life at 5 μM was determined as 47.8 min and the CLint scaled at 5 μM is 36.4 mL/min/kg. Also, in data set [2], the intrinsic metabolic clearance (CLint scaled) at 5 μM was 85.1 mL/min/kg and the half-life at 5 μM amounted to 29.2 min. Moreover, in data set [3], the “Clearance (CL) after iv dosing” value worked out at 15.2 mL/min/kg, the AUC(0-t) came out at 1090 ng·h/mL, the half-life is 51.6 min and the Vd stood at 0.96 L/kg. The bioavailability in data set [3] amounted to 34.1%.
As for `CC(O)Cn1ccc2cc(Nc3ncc(Cl)c(NC4CCN(c5ccc(C#N)cn5)CC4)n3)cnc21` (stereo not drawn) [Example 54, 6-(4-((5-chloro-2-((1-(2-hydroxypropyl)-1H-pyrrolo[2,3-b]pyridin-5-yl)amino)pyrimidin-4-yl)amino)piperidin-1-yl)nicotinonitrile], in data set [1], the half-life at 5 μM was 8.52 min and the CLint scaled at 5 μM is 204 mL/min/kg. Further, in data set [2], the CLint scaled at 5 μM is 634 mL/min/kg and the half-life at 5 μM was 3.92 min. For the same compound, in data set [3], the “Clearance (CL) after iv dosing” value was 23.8 mL/min/kg, the AUC(0-t) was found to be 714 ng·h/mL, the half-life is 47.4 min and the Vd came to 0.95 L/kg. For the same compound, the bioavailability in data set [3] is 36.6%.
`CN(C)C(=O)c1nc2cc(Nc3ncc(Cl)c(NC4CCN(c5ccc(C#N)cn5)CC4)n3)ccn2n1` [Example 83, 7-((5-chloro-4-((1-(5-cyanopyridin-2-yl)piperidin-4-yl)amino)pyrimidin-2-yl)amino)-N,N-dimethyl-[1,2,4]triazolo[1,5-a]pyridine-2-carboxamide]: in data set [1], the half-life at 5 μM was 15.1 min and the CLint scaled at 5 μM is 115 mL/min/kg. For the same compound, in data set [2], the CLint scaled at 5 μM is 193 mL/min/kg and the half-life at 5 μM came to 12.9 min. In data set [3], the “Clearance (CL) after iv dosing” value worked out at 9.33 mL/min/kg, the AUC(0-t) is 1830 ng·h/mL, the half-life was 84.6 min and the Vd came to 0.65 L/kg. For the same compound, in data set [3], the bioavailability came out at 38.6%.
Consider `CC(C)(O)c1nc2cc(Nc3ncc(Cl)c(NC4CCN(c5ccc(C#N)nn5)CC4F)n3)ccn2n1` (stereo not drawn) [Example 88, 6-(4-((5-chloro-2-((2-(2-hydroxypropan-2-yl)-[1,2,4]triazolo[1,5-a]pyridin-7-yl)amino)pyrimidin-4-yl)amino)-3-fluoropiperidin-1-yl)pyridazine-3-carbonitrile], for which, in data set [1], the half-life at 5 μM was 4720 min and the CLint scaled at 5 μM is 0.4 mL/min/kg. For the same compound, in data set [2], the intrinsic clearance (CLint scaled) at 5 μM was 13.2 mL/min/kg and the half-life at 5 μM was found to be 188 min. Also, in data set [3], the “Clearance (CL) after iv dosing” value was determined as 17.5 mL/min/kg, the AUC(0-t) amounted to 1460 ng·h/mL, the half-life is 32.3 min and the Vd was 0.688 L/kg. In addition, in data set [3], the bioavailability came to 4.5%.
